Source: patent US20100173013A1, “TREATMENT OF NEOPLASTIC DISORDERS USING COMBINATION THERAPIES” (priority 2009, published 2010)
Values joined by “and” are separate entries in the source; they are usually repeats but may differ in a detail not shown here. Equal entries are not always repeated. Structures can show the parent of a compound that is named as a salt. Where two headings read alike, the source gives them in different places. Each block holds one compound with its values, some of them ahead of it.

What was measured:
[1] = test system: Hs 578T breast cancer cells; experiment: Alamar Blue cell inhibition assay, Hs 578T; assay type: cell-based; conditions: 4 day assay, read-out: IC50 (single agent)
[2] = test system: BT-474 breast carcinoma cells; experiment: Alamar Blue cell inhibition assay, BT-474; assay type: cell-based; conditions: read-out: IC50 (single agent)
[3] = test system: T47D breast carcinoma cells; experiment: Alamar Blue cell inhibition assay, T47D; assay type: cell-based; conditions: read-out: IC50 (single agent)
[4] = test system: SUM-190PT inflammatory breast carcinoma cells; experiment: cells; conditions: for IC50: read-out: IC50 (single agent)
[5] = test system: A375 melanoma cells; experiment: Alamar Blue cell inhibition assay, A375; assay type: cell-based; conditions: drug added 24 hours before Compound K, read-out: IC50 (single agent)
[6] = test system: MDA-MB-468 breast cancer cells; experiment: Alamar Blue cell inhibition assay, MDA-MB-468; assay type: cell-based; conditions: 5 day assay, read-out: IC50 (single agent)
[7] = test system: SUM-149PT inflammatory breast carcinoma cells; experiment: Alamar Blue cell inhibition assay, SUM-149PT; assay type: cell-based; conditions: for IC50: read-out: IC50 (single agent)
[8] = test system: MIA PaCa-2 pancreatic cancer cells; experiment: Alamar Blue cell inhibition assay, MIA PaCa-2
[9] = test system: phosphorylation of AKT at S129, T308, S473, p21 at T145, cleavage of PARP; experiment: Western hybridization analysis in BT-474 (AKT, p21 phosphorylation, PARP cleavage); assay type: cell-based; conditions: 5 uM Compound K, 1 uM AKTi VIII, 5:1 combination, 8 hour assay
[10] = test system: erlotinib-resistant ZR-75-1 breast carcinoma cells; experiment: Alamar Blue cell inhibition assay, ZR-75-1; assay type: cell-based; conditions: 4 day assay, read-out: IC50 (single agent)
[11] = test system: erlotinib-resistant MDA-MB-453 breast carcinoma cells; conditions: read-out: IC50 (single agent), 4 day assay
[12] = test system: phosphorylation of Akt at Ser129 and Ser473, PRAS40 at Thr246; conditions: MDA-MB-453; 10 uM Compound K, 100 uM Erlotinib, 2 uM Lapatinib; 2, 4 and 8 hour
Excerpt: Whole proteomes were isolated from treated cells and analyzed by Western blot for changes in phosphorylation status of Akt at Ser129 and Ser473 or downstream mediator of Akt activity, PRAS40 at Thr246.

[13] = test system: erlotinib-resistant MDA-MB-453 breast carcinoma cells; experiment: cells; conditions: Homo sapiens, MDA-MB-453, 96 h, read-out: IC50 (single agent)
[14] = Homo sapiens, 72 h, BT-474, 3 day assay
[15] = Homo sapiens, A-375, A375, 5 day assay
[16] = Homo sapiens, MDA-MB-468, 120 h, Compound K added first, drug the next day
[17] = Homo sapiens, 96 h, T47D, 4 day assay
[18] = Homo sapiens, 96 h, BT-474, 4 day assay
[19] = Compound K added first, drug the next day
[20] = Homo sapiens, MIA PaCa-2, read-out: IC50 (single agent)
[21] = Homo sapiens, MDA-MB-468, 120 h, drug added first, Compound K the next day

Structure (SMILES): Oc1cccc(-c2nc(N3CCOCC3)c3oc4ncccc4c3n2)c1 [PI-103, 3-[4-(4-morpholinylpyrido[3′,2′:4,5]furo[3,2-d]pyrimidin-2-yl]phenol hydrochloride]
IC50 [2, 14]: 0.41 µM
IC50 ([3]; Homo sapiens, T47D, 72 h): 5.37 µM

Structure (SMILES): CO[C@H]1C[C@@H]2CC[C@@H](C)[C@@](O)(O2)C(=O)C(=O)N2CCCC[C@H]2C(=O)O[C@H]([C@H](C)C[C@@H]2CC[C@@H](O)[C@H](OC)C2)CC(=O)[C@H](C)/C=C(\C)[C@@H](O)[C@@H](OC)C(=O)[C@H](C)C[C@H](C)/C=C/C=C/C=C/1C [Rapamycin]
IC50 ([8]; Homo sapiens, MIA PaCa-2, 96 h, read-out: IC50 (single agent)): 18100 nM
IC50 ([7]; Homo sapiens, SUM149PT): 9.7 µM

Structure (SMILES): Nc1nc(F)nc2c1ncn2[C@@H]1O[C@H](CO)[C@@H](O)[C@@H]1O [Fludarabine]
IC50 [5, 15]: 0.0029 µM

Structure (SMILES): O=c1[nH]c2ccccc2n1C1CCN(Cc2ccc(-c3nc4cc5[nH]cnc5cc4nc3-c3ccccc3)cc2)CC1 [AKTi VIII, 1,3-Dihydro-1-(1-((4-(6-phenyl-1H-imidazo[4,5-g]quinoxalin-7-yl)phenyl)methyl)-4-piperidinyl)-2H-benzimidazol-2-one]
IC50 [2, 14]: 0.55 µM
IC50 [2, 18]: 0.5 µM
cleavage of PARP (i.e. induction of apoptosis) [9]: very minor effect
phosphorylation of AKT at S129 [9]: no effect
phosphorylation of AKT at T308 and S473 [9]: Dramatically reduced
phosphorylation of p21 at T145 [9]: Dramatically decreased

Structure (SMILES): CO[C@H]1/C=C\C=C(/C)C(=O)NC2=CC(=O)C(NCCN(C)C)=C(C[C@@H](C)C[C@H](OC)[C@H](O)[C@@H](C)/C=C(\C)[C@@H]1OC(N)=O)C2=O [Compound 17-DMAG, 17-Dimethylamino-ethylamino-17-demethoxygeldanamycin]
IC50 [1]: 0.00637 µM

Structure (SMILES): O=C(O)c1ccc2c(c1)nc(Nc1cccc(Cl)c1)c1ccncc12 [Compound K]
IC50 [2]: 2.7 µM and 2.9 µM and 2.68 µM
IC50 [1]: 17.6 µM and 16.7 µM
IC50 ([3]; T47D, 4 day assay): 5.9 µM and 5.87 µM
IC50 ([3]; T-47D, 3 day assay): 3.35 µM
IC50 [10]: 4.1 µM
IC50 ([4]; SUM-190PT, drug added 24 hours before Compound K, 5 day assay): 0.852 µM
IC50 ([5]; A375, 4 day assay): 5 µM and 4.8 µM and 5.1 µM
cleavage of PARP (i.e. induction of apoptosis) [9]: very minor effect
phosphorylation of AKT at S129 [9]: Dramatically reduced
phosphorylation of AKT at T308 and S473 [9]: moderate effect
phosphorylation of p21 at T145 [9]: Dramatically decreased
IC50 [6, 19]: 4.6 µM and 4.5 µM and 4.3 µM
IC50 ([6]; drug added first, Compound K the next day): 4.4 µM and 4.3 µM and 4.5 µM
IC50 [11]: 6.15 µM
IC50 ([8]; read-out: IC50 (single agent), MIA PaCa-2, added simultaneously, 4 day assay): 1700 nM
IC50 ([8]; read-out: IC50 (single agent), MIA PaCa-2, drug added 24 hours before Compound K, 4 day assay): 1500 nM and 2000 nM
IC50 ([8]; read-out: IC50 (single agent), MIA PaCa-2, drug added 24 hours before Compound K, 5 day assay): 4100 nM
phosphorylation of Akt at Ser129 [12]: significant reduction
phosphorylation of Akt at Ser473 [12]: affected, but to a lesser degree
phosphorylation of PRAS40 at Thr246 [12]: significantly less pronounced

Structure (SMILES): CS(=O)(=O)CCNCc1ccc(-c2ccc3ncnc(Nc4ccc(OCc5cccc(F)c5)c(Cl)c4)c3c2)o1 [Lapatinib]
IC50 [3, 17]: 5.68 µM
phosphorylation of Akt at Ser129 [12]: no effect
phosphorylation of Akt at Ser473 [12]: below the detectable levels
phosphorylation of PRAS40 at Thr246 [12]: pronounced decrease

Structure (SMILES): CC[C@]1(O)C[C@@H]2CN(CCc3c([nH]c4ccccc34)[C@@](C(=O)OC)(c3cc4c(cc3OC)N(C)[C@H]3[C@@](O)(C(=O)OC)[C@H](OC(C)=O)[C@]5(CC)C=CCN6CC[C@]43[C@@H]65)C2)C1 [Vinblastine]
IC50 [5, 15]: 0.0012 µM
IC50 [8, 20]: 0.014 nM

Structure (SMILES): C#Cc1cccc(Nc2ncnc3cc(OCCOC)c(OCCOC)cc23)c1 [Erlotinib]
IC50 [2, 18]: 6.6 µM
IC50 [3, 17]: 47 µM
IC50 ([10]; Homo sapiens, 96 h): > 200 µM
IC50 [13]: > 100 µM
degree of inhibitory effect found with agent combination ([7]; Compound K 0 μM, Erlotinib 10 μM, Erlotinib added 24 h before K, 5 day assay, positive=synergy, negative=antagonism): 0.0%
IC50 ([7]; Homo sapiens, SUM149PT): 2.2 µM
phosphorylation of Akt at Ser129 [12]: no effect
phosphorylation of Akt at Ser473 [12]: below the detectable levels
phosphorylation of PRAS40 at Thr246 [12]: pronounced decrease

Structure (SMILES): COC[C@H]1OC(=O)c2coc3c2[C@@]1(C)C1=C(C3=O)[C@@H]2CCC(=O)[C@@]2(C)C[C@H]1OC(C)=O [Wortmannin]
IC50 [2, 14]: 25.9 µM

Structure (SMILES): N.N.[Cl][Pt][Cl] [Cisplatin]
IC50 [6, 19]: 0.43 µM
IC50 ([7]; SUM-149PT, drug added 24 hours before Compound K, 5 day assay): 0.462 µM

Now from value to compound, other results behind:

IC50 ([1]; Homo sapiens, 96 h): 0.00276 µM
Structure (SMILES): Cc1[nH]c2ccccc2c1CCNCc1ccc(/C=C/C(=O)NO)cc1 [Panobinostat]

IC50 ([4]; SUM190PT): 12.2 µM
IC50 [5, 15]: 3 µM
IC50 [6, 16]: 10.6 µM
IC50 ([7]; Homo sapiens, SUM149PT): 1.7 µM
Structure (SMILES): O=c1[nH]cc(F)c(=O)[nH]1 [5-Fluorouracil]
degree of inhibitory effect found with agent combination ([4]; Compound K 0 μM, 5-Fluorouracil 10 μM, 5-Fluorouracil added 24 h before K, 5 day assay, positive=synergy, negative=antagonism): 0.0% and −0.0%

IC50 [2, 14]: 2.26 µM
Structure (SMILES): O=c1cc(N2CCOCC2)oc2c(-c3ccccc3)cccc12 [LY294002, 2-(4-morpholinyl)-8-phenyl-4H-1-benzopyran-4-one]

IC50 [3, 17]: 3.58 µM
Structure (SMILES): CNC(=O)c1cc(Oc2ccc(NC(=O)Nc3ccc(Cl)c(C(F)(F)F)c3)cc2)ccn1 [Sorafenib]

IC50 [3, 17]: 6.2 µM
IC50 ([5]; Homo sapiens, A-375, A375, 4 day assay): 0.145 µM
IC50 [8, 20]: 420 nM
Structure (SMILES): CCN(CC)CCNC(=O)c1c(C)[nH]c(/C=C2\C(=O)Nc3ccc(F)cc32)c1C [Sunitinib]

IC50 [6, 16]: 0.016 µM
IC50 [6, 21]: 0.017 µM
Structure (SMILES): COc1cccc2c1C(=O)c1c(O)c3c(c(O)c1C2=O)C[C@@](O)(C(=O)CO)C[C@@H]3O[C@H]1C[C@H](N)[C@H](O)[C@H](C)O1 [Doxorubicin]

IC50 [6, 16]: 0.008 µM
IC50 [6, 21]: 0.0088 µM
IC50 [8, 20]: 184 nM
Structure (SMILES): Nc1ccn([C@@H]2O[C@H](CO)[C@@H](O)C2(F)F)c(=O)n1 [Gemcitabine]

IC50 [2, 14]: 0.01 µM
Structure (SMILES): Cn1c(=O)n(-c2ccc(C(C)(C)C#N)cc2)c2c3cc(-c4cnc5ccccc5c4)ccc3ncc21 [BEZ235]
